Patent publication US12146886B2, “Methods for detecting and treating endometriosis” (The Feinstein Institutes for Medical Research, priority 2018, dated 2024)

Columns and labels:
ME-SFCs [1] = experiment: Long-term study: transient cytokine exposure of ME-SFCs, decidualization 25 days after final treatment (IGFBP-1 ELISA); type: cell-based, human; conditions: for SFC decidualization capacity after transient exposure: FIG. 4A-4B
Procedure: (§1) In vitro exposure of ME-SFCs to inflammatory cytokines (e.g. TNFα) reduces decidualization capacity. […] After 24 hrs, culture supernatants were collected and IGFBP-1 protein levels were measured by ELISA. […] Twenty four hours later, the culture supernatants were collected and IGFBP-1 protein levels were measured by ELISA.

ME-SFCs [2] = experiment: Acute exposure of ME-SFCs to inflammatory cytokines, then cAMP decidualization (IGFBP-1 ELISA); type: cell-based, human; conditions: TNFα 1 pg/ml-10 ng/ml; SFCs from a normal subject; 24 hours; cAMP 0.5 mM
Procedure: as §1

Substance	SFC decidualization capacity after transient exposure (ME-SFCs [1])	decidualization capacity of SFCs (ME-SFCs [2])	persistence of decidualization defects (reduced IGFBP1 production) after removal from culture (ME-SFCs [1]; TNFα 0.1-1.0 ng/ml on days 0 and 5, decidualization with cAMP alone or cAMP and medroxyprogesterone)	cell viability (SFCs)
IL-1β: inflammatory cytokine	persistent defects			
TNFα	persistent defects	dramatically reduces decidualization capacity	at least 25 days	not affected
